Measurements taken from patent publication US9832992B1, “Microbicidal composition” (Dow Global Technologies LLC, priority 2013, dated 2017).
Like-named read-outs stand apart in the source and are kept apart here.

Tests used:
Format in all cases: cell-based
[1] = test system: Candida albicans ATCC#10203; assay: MIC / synergy index test in 96 well microtiter plates, yeast
Experimental: (§1) Surfactants and biocides were evaluated for synergy by determining the synergy index (S.I.) of the combination. Synergy index was calculated based on minimum inhibitory concentrations (MIC) of two antimicrobial compounds (A and B) alone and in combinations. The tests organisms were Gram negative bacteria (Pseudomonas aeruginosa ATCC #15442), Gram positive bacteria (Staphylococcus aureus ATCC #6538), yeast (Candida albicans ATCC#10203) and mold (Aspergillus niger ATCC#16404). Contact time for the bacteria was 24 and 48 hours, yeast was 48 and 72 hrs, and 3 and 7 days for mold. The test was carried out in 96 well microtiter plates.
(§2) SI is calculated as follows: Ca/CA+Cb/CB=Synergy Index (“SI”)
(§3) Wherein: • CA=concentration of compound A in ppm, acting alone, which produced an end point (MIC of Compound A). • Ca=concentration of compound A in ppm, in the mixture, which produced an end point. • CB=concentration of compound B in ppm, acting alone, which produced an end point (MIC of Compound B). • Cb=concentration of compound B in ppm, in the mixture, which produced an end point. When the sum of Ca/CA and Cb/CB is greater than one, antagonism is indicated.

[2] = test system: Aspergillus niger ATCC#16404; assay: MIC / synergy index test in 96 well microtiter plates, mold
Experimental: as §1, §2, §3

[3] = test system: Staphylococcus aureus ATCC #6538; assay: MIC / synergy index test in 96 well microtiter plates, Gram positive bacteria
Experimental: as §1, §2, §3

[4] = test system: Pseudomonas aeruginosa ATCC #15442; assay: MIC / synergy index test in 96 well microtiter plates, Gram negative bacteria
Experimental: as §1, §2, §3

Row | SMILES | CB (MIC of compound B alone) ([1]; B: BNPD; table with Surf. E; 48 hrs; Media: PDB; Inoculum size: 1.808E+06 CFU/ml) [ppm] | MIC ([1]; Candida albicans, ATCC10203, 48 h; read-out: CB (MIC of compound B alone)) [µg/mL] | MIC ([2]; Aspergillus niger, ATCC16404; read-out: CB (MIC of compound B alone)) [µg/mL] | CB (MIC of compound B alone) ([3]; B: BNPD; table with Surf. E; 24 hrs; Media: 1/10 TSB; Inoculum size: 1.808E+06 CFU/ml) [ppm] | MIC ([3]; Staphylococcus aureus, ATCC6538, 24 h; read-out: CB (MIC of compound B alone)) [µg/mL] | CB (MIC of compound B alone) ([4]; B: BNPD; table with Surf. D; 24 hrs; Media: 1/10 TSB; Inoculum size: 1.16E+08) [ppm] | CB (MIC of compound B alone) ([4]; B: BNPD; table with Surf. E; 24 hrs; Media: 1/10 TSB; Inoculum size: 5.727E+07 CFU/ml) [ppm] | MIC ([4]; Pseudomonas aeruginosa, ATCC15442, 24 h; read-out: CB (MIC of compound B alone)) [µg/mL] | CB (MIC of compound B alone) ([1]; B: DAZOMET; table with Surf. D; 48 hrs; Media: PDB; Inoculum size: 5.72E+05) [ppm] | MIC ([1]; Candida albicans, ATCC10203, 48 h, read-out: CB (MIC of compound B alone)) [µg/mL] | CB: MIC of B (DAZOMET) alone ([2]; A. niger ATCC #16404; 3rd day; Media: PDB; Inoculum size: 1.156E+06; table with A: Surf. E) [PPM AI] | CB: MIC of B (DAZOMET) alone ([2]; A. niger ATCC #16404; 3rd day; Media: PDB; Inoculum size: 1.56E+06; table with A: Surf. D) [PPM AI] | MIC ([2]; Aspergillus niger, ATCC16404, read-out: CB (MIC of compound B alone)) [µg/mL] | CB: MIC of B alone ([3]; B: DAZOMET alone; 24 hrs; Media 1/10 TSB; inoculum 5.72E+05) [PPM AI] | MIC ([3]; Staphylococcus aureus, ATCC6538, 24 h, read-out: CB (MIC of compound B alone)) [µg/mL] | MIC ([4]; Pseudomonas aeruginosa, ATCC15442, 24 h, read-out: CB (MIC of compound B alone)) [µg/mL]
1 | O=[N+]([O-])C(Br)(CO)CO [BNPD, 2-bromo-2-nitropropane-1,3-diol] | 1000 | 1000 | 1000 | 20 | 20 | 10 | 10 | 10 | – | – | – | – | – | – | – | –
2 | CN1CSC(=S)N(C)C1 [DAZOMET, tetrahydro-3,5-dimethyl-2H-1,3,5-thiadiazine-2-thione] | – | – | – | – | – | – | – | – | 50 | 50 | 30 | 40 | 60 | 200 | 200 | 80
